Test results taken from patent publication US20210207064A1, “COMPOUND FOR RESTORING CONTAMINATED SOIL OR CONTAMINATED WATER” (FNG RESEARCH CO., LTD., priority 2018, published 2021).

Columns and labels:
[1] = Heavy metal removal ability test in contaminated soil around a factory (WAK-Me test kit); conditions: 1.0 wt % aqueous solution, colour comparison test kit
Experimental: The contaminated soil around the factory in the industrial complex was collected, pulverized, and meshed to prepare fine particles of soil samples.
Each 3 ml of aqueous solutions for restoring soil was added to soil samples and mixed for 5 minutes.

[2] = Heavy metal removal ability test in contaminated soil (ICP-MS), nickel; conditions: for Nickel (Ni) Adsorption amount: contaminated soil; for Nickel (Ni) Adsorption rate: relative to EDTA control
In short: (§1)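 Sieved soil spiked with aqueous heavy metal, mixed 5 min with 3 ml of test solution, then extracted with 50 ml distilled water (20 min stirring, 1 h settling). Supernatant metal measured by ICP-MS; adsorption rate (%) expressed relative to control.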

[3] = Heavy metal removal ability test in contaminated soil (ICP-MS), arsenic; conditions: for Arsenic (As) Adsorption amount: contaminated soil; for Arsenic (As) Adsorption rate: relative to EDTA control
In short: as §1

human skin = experiment: Skin irritation test of active ingredient (patch method, CTFA guidelines); assay type: in vivo; conditions: 24 h patch; for Test result (number of subject) (+) / Test result (number of subject) (++) / Test result (number of subject) (±) / Test result (number of subject) (−): 20 people; for Test result (number of subject) (+): (+) apparent reddening; for Test result (number of subject) (++): (++) more reddened and swollen; for Test result (number of subject) (±): (±) slightly reddish; for Test result (number of subject) (−): (−) no erythema
[4] = Formaldehyde (formalin) removing ability test (GC); conditions: 2.0% formaldehyde solution, 3 molar equivalents of compound, room temperature; for Formaldehyde GC Area, 30 min: after 30 min; for Formaldehyde GC Area, 180 min: after 180 min; for Formaldehyde GC Area, Initial: initial state
[5] = Heavy metal removal ability test in contaminated soil (ICP-MS), cadmium; conditions: for Cadmium (Cd) Adsorption amount: contaminated soil; for Cadmium (Cd) Adsorption rate: relative to EDTA control
In short: as §1

Row | Structure (SMILES) | Total amount (Cu, Zn, Mn, Ni, Cd) [1] | Nickel (Ni) Adsorption amount ([2]; content 0.5% aqueous solution) | Nickel (Ni) Adsorption rate ([2]; content 0.5%) | Nickel (Ni) Adsorption amount ([2]; content 1.0% aqueous solution) | Nickel (Ni) Adsorption rate ([2]; content 1.0%) | Nickel (Ni) Adsorption amount ([2]; content 2.0% aqueous solution) | Nickel (Ni) Adsorption rate ([2]; content 2.0%) | Arsenic (As) Adsorption amount ([3]; content 0.5% aqueous solution) | Arsenic (As) Adsorption rate ([3]; content 0.5%) | Arsenic (As) Adsorption amount ([3]; content 1.0% aqueous solution) | Arsenic (As) Adsorption rate ([3]; content 1.0%) | Arsenic (As) Adsorption amount ([3]; content 2.0% aqueous solution) | Arsenic (As) Adsorption rate ([3]; content 2.0%) | Test result (number of subject) (+) (human skin; content 0.1 wt %) | Test result (number of subject) (++) (human skin; content 0.1 wt %) | Test result (number of subject) (±) (human skin; content 0.1 wt %) | Test result (number of subject) (−) (human skin; content 0.1 wt %) | Degree of irritation (human skin; content 0.1 wt %) | Grade for skin irritation (human skin; content 0.1 wt %) | Test result (number of subject) (+) (human skin; content 0.5 wt %) | further results
1 | C1CNCCNCCNCCN1 [Cyclen, 1,4,7,10-tetraazacyclododecane] | ≤5 ppm | 91 ppm | 186% | 93 ppm | 190% | 98 ppm | 200% | 42 ppm | 168% | 49 ppm | 196% | 51 ppm | 204% | 0 | 0 | 0 | 20 | 0 | I (Degree of irritation 0-0.1: Grade I (unstimulated)) | 0 | Test result (number of subject) (++) (human skin; content 0.5 wt %): 0; Test result (number of subject) (±) (human skin; content 0.5 wt %): 0; Test result (number of subject) (−) (human skin; content 0.5 wt %): 20; Degree of irritation (human skin; content 0.5 wt %): 0; Grade for skin irritation (human skin; content 0.5 wt %): I (Degree of irritation 0-0.1: Grade I (unstimulated)); Test result (number of subject) (+) (human skin; content 1.0 wt %): 1; Test result (number of subject) (++) (human skin; content 1.0 wt %): 0; Test result (number of subject) (±) (human skin; content 1.0 wt %): 1; Test result (number of subject) (−) (human skin; content 1.0 wt %): 18; Degree of irritation (human skin; content 1.0 wt %): 0.15; Grade for skin irritation (human skin; content 1.0 wt %): II (Degree of irritation 0.11-0.3: Grade II (weakly stimulated)); Formaldehyde GC Area, 30 min [4]: 0.181 mAU*min; Formaldehyde GC Area, 180 min [4]: 0 mAU*min; Formaldehyde GC Area, Initial [4]: 0.305 mAU*min; Cadmium (Cd) Adsorption amount ([5]; content 0.5% aqueous solution): 69 ppm; Cadmium (Cd) Adsorption rate ([5]; content 0.5%): 168%; Cadmium (Cd) Adsorption amount ([5]; content 1.0% aqueous solution): 74 ppm; Cadmium (Cd) Adsorption rate ([5]; content 1.0%): 180%; Cadmium (Cd) Adsorption amount ([5]; content 2.0% aqueous solution): 81 ppm; Cadmium (Cd) Adsorption rate ([5]; content 2.0%): 198%
2 | O=C(O)CN(CCN(CCN(CC(=O)O)CC(=O)O)CC(=O)O)CCN(CC(=O)O)CC(=O)O [Embodiment 1, 3,6,9,12-tetrakis(carboxymethyl)-3,6,9,12-tetraazatetradecanedioic Acid] | ≤5 ppm | 91 ppm | 186% | 101 ppm | 206% | 112 ppm | 229% | 48 ppm | 192% | 50 ppm | 200% | 53 ppm | 212% | 0 | 0 | 0 | 20 | 0 | I (Degree of irritation 0-0.1: Grade I (unstimulated)) | 0 | Test result (number of subject) (++) (human skin; content 0.5 wt %): 0; Test result (number of subject) (±) (human skin; content 0.5 wt %): 1; Test result (number of subject) (−) (human skin; content 0.5 wt %): 19; Degree of irritation (human skin; content 0.5 wt %): 0.05; Grade for skin irritation (human skin; content 0.5 wt %): I (Degree of irritation 0-0.1: Grade I (unstimulated)); Test result (number of subject) (+) (human skin; content 1.0 wt %): 0; Test result (number of subject) (++) (human skin; content 1.0 wt %): 0; Test result (number of subject) (±) (human skin; content 1.0 wt %): 4; Test result (number of subject) (−) (human skin; content 1.0 wt %): 16; Degree of irritation (human skin; content 1.0 wt %): 0.20; Grade for skin irritation (human skin; content 1.0 wt %): II (Degree of irritation 0.11-0.3: Grade II (weakly stimulated)); Formaldehyde GC Area, 30 min [4]: 0.170 mAU*min; Formaldehyde GC Area, 180 min [4]: 0 mAU*min; Formaldehyde GC Area, Initial [4]: 0.305 mAU*min; Cadmium (Cd) Adsorption amount ([5]; content 0.5% aqueous solution): 74 ppm; Cadmium (Cd) Adsorption rate ([5]; content 0.5%): 180%; Cadmium (Cd) Adsorption amount ([5]; content 1.0% aqueous solution): 79 ppm; Cadmium (Cd) Adsorption rate ([5]; content 1.0%): 193%; Cadmium (Cd) Adsorption amount ([5]; content 2.0% aqueous solution): 84 ppm; Cadmium (Cd) Adsorption rate ([5]; content 2.0%): 205%
3 | O=C(O)c1ccc(N(CCN(CCN(c2ccc(C(=O)O)o2)c2ccc(C(=O)O)o2)c2ccc(C(=O)O)o2)CCN(c2ccc(C(=O)O)o2)c2ccc(C(=O)O)o2)o1 [Embodiment 4, 5,5′,5″,5′″-(((ethane-1,2-diylbis((5-carboxyfuran-2-yl)azanediyl))bis(ethane-2,1-diyl))bis(azanetriyl))tetrakis(furan-2-carboxylic Acid)] | ≤5 ppm | 91 ppm | 186% | 94 ppm | 192% | 104 ppm | 212% | 53 ppm | 212% | 56 ppm | 224% | 56 ppm | 224% | 0 | 0 | 0 | 20 | 0 | I (Degree of irritation 0-0.1: Grade I (unstimulated)) | 0 | Test result (number of subject) (++) (human skin; content 0.5 wt %): 0; Test result (number of subject) (±) (human skin; content 0.5 wt %): 0; Test result (number of subject) (−) (human skin; content 0.5 wt %): 20; Degree of irritation (human skin; content 0.5 wt %): 0; Grade for skin irritation (human skin; content 0.5 wt %): I (Degree of irritation 0-0.1: Grade I (unstimulated)); Test result (number of subject) (+) (human skin; content 1.0 wt %): 0; Test result (number of subject) (++) (human skin; content 1.0 wt %): 0; Test result (number of subject) (±) (human skin; content 1.0 wt %): 1; Test result (number of subject) (−) (human skin; content 1.0 wt %): 19; Degree of irritation (human skin; content 1.0 wt %): 0.05; Grade for skin irritation (human skin; content 1.0 wt %): I (Degree of irritation 0-0.1: Grade I (unstimulated)); Formaldehyde GC Area, 30 min [4]: 0.173 mAU*min; Formaldehyde GC Area, 180 min [4]: 0 mAU*min; Formaldehyde GC Area, Initial [4]: 0.305 mAU*min; Cadmium (Cd) Adsorption amount ([5]; content 0.5% aqueous solution): 67 ppm; Cadmium (Cd) Adsorption rate ([5]; content 0.5%): 163%; Cadmium (Cd) Adsorption amount ([5]; content 1.0% aqueous solution): 74 ppm; Cadmium (Cd) Adsorption rate ([5]; content 1.0%): 180%; Cadmium (Cd) Adsorption amount ([5]; content 2.0% aqueous solution): 80 ppm; Cadmium (Cd) Adsorption rate ([5]; content 2.0%): 195%
